Patent US9216999B2, “Substituted pyrrolo[2,3-h][1,6]naphthyridines and compositions thereof as JAK inhibitors” (priority 2011, dated 2015)

Assays:
JAK3 [1] = target: T1, JAK3 (Homo sapiens (Human), UniProt P52333); test: JAK3 enzyme assay (Assay Example^b 1); details: IC50 (μM) JAK3, Table^b 80; ATP 100 μM
JAK1 = JAK1 (Homo sapiens (Human), UniProt P23458); test: Enzyme assay (Assay Example^a 1), JAK1; type: biochemical; details: ATP 100 μM
Tyk2 = Tyk2 (Homo sapiens (Human), UniProt P29597); test: Enzyme assay (Assay Example^a 1), Tyk2; type: biochemical; details: ATP 100 μM
Sequence of Tyk2 (P29597 whole entry): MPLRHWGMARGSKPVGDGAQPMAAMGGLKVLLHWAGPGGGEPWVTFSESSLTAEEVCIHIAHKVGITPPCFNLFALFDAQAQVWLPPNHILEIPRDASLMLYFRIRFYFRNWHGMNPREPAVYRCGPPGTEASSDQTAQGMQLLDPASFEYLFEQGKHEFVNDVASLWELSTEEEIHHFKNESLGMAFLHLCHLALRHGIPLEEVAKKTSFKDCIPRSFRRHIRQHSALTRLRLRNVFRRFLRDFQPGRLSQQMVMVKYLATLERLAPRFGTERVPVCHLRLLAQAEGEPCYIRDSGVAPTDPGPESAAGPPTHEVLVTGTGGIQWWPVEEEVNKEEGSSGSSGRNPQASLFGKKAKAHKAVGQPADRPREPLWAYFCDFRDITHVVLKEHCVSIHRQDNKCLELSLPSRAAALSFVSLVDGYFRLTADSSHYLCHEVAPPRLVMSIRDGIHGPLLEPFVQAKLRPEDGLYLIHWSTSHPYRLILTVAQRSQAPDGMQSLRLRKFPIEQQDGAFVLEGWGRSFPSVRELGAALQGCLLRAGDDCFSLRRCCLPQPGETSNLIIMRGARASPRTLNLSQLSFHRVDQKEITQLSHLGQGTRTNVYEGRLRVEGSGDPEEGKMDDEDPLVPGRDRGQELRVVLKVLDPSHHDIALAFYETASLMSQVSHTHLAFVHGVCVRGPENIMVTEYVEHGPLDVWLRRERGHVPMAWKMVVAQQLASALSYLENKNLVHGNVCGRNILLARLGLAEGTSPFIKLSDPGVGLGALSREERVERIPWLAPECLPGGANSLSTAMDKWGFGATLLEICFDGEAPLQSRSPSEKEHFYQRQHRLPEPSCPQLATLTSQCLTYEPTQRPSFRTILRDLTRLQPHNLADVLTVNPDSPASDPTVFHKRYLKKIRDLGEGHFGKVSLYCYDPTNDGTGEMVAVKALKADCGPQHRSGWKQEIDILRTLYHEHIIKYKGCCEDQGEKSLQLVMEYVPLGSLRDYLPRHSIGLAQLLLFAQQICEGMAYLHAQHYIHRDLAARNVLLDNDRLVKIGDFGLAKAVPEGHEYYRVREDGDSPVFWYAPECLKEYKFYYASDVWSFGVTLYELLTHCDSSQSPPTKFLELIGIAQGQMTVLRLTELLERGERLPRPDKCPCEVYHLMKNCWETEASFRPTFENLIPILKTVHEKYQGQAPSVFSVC

JAK2 = JAK2 (Homo sapiens (Human), UniProt O60674); test: Enzyme assay (Assay Example^a 1), JAK2; type: biochemical; details: ATP 100 μM
JAK3 [2] = target: T1, JAK3; test: Enzyme assay (Assay Example^a 1), JAK3; type: biochemical; details: ATP 100 μM

T1 sequence (P52333 whole entry): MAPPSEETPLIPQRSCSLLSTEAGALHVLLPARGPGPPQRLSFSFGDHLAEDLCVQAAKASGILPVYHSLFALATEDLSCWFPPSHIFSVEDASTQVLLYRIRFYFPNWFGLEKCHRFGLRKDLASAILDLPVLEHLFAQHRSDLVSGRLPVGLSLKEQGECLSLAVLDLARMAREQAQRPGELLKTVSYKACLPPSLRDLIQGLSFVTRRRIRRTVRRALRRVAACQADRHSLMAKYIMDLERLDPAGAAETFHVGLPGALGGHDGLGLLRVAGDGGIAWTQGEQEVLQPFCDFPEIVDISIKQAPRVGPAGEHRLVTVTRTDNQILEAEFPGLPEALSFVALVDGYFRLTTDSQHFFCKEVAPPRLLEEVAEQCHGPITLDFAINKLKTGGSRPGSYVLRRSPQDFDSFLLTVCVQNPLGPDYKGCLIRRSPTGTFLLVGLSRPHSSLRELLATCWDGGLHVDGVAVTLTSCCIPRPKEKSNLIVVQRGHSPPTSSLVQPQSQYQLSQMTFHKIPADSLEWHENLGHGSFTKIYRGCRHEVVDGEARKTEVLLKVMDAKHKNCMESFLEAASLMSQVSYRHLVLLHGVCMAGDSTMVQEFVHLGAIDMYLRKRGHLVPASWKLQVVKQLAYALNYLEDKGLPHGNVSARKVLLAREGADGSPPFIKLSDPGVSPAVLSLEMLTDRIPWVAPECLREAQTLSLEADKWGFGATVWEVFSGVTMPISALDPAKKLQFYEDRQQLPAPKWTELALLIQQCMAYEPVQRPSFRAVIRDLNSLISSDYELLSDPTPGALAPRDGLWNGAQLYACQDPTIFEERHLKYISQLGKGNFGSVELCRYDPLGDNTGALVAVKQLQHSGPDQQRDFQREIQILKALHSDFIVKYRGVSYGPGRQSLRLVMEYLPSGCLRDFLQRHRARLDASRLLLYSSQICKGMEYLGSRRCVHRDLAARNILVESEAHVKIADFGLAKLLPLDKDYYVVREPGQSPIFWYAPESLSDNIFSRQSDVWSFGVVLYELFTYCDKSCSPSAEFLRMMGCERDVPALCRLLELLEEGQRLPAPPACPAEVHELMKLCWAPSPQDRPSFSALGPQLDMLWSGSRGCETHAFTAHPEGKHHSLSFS

SMILES	IC50 (JAK1)	IC50 (Tyk2)	IC50 (JAK2)	IC50 (JAK3 [2])	IC50 (JAK3 [1])	IC50 (JAK1; Table^a 154)	IC50 (Tyk2; Table^a 154)	IC50 (JAK2; Table^a 154)	IC50 (JAK3 [2]; Table^a 154)
O=c1ccn(C2CCN(Cc3ccc([N+](=O)[O-])o3)CC2)c2c1cnc1[nH]ccc12 [compound 72]	–	–	–	–	> 1 µM	–	–	–	–
Cc1ccc(CNC(=O)[C@H]2CC[C@H](c3nnn4cnc5[nH]ccc5c34)CC2)o1 [compound 349, trans-N-[(5-methylfuran-2-yl)methyl]-4-(7H-pyrrolo[3,2-e][1,2,3]triazolo[1,5-c]pyrimidin-1-yl)cyclohexanecarboxamide]	0.0059 µM	0.25 µM	0.048 µM	> 1 µM	–	–	–	–	–
O=C(NCCc1ccc(Cl)cc1)[C@H]1CC[C@H](c2nnn3cnc4[nH]ccc4c23)CC1 [compound 352, trans-N-(4-chlorophenethyl)-4-(7H-pyrrolo[3,2-e][1,2,3]triazolo[1,5-c]pyrimidin-1-yl)cyclohexanecarboxamide]	0.005 µM	> 1 µM	0.029 µM	> 1 µM	–	–	–	–	–
CC(C)(C)OC(=O)N1CC[C@H](NC[C@H]2CC[C@H](c3nnn4cnc5[nH]ccc5c34)CC2)C1 [compound 337, (S)-tert-butyl 3-({[trans-4-(7H-pyrrolo[3,2-e][1,2,3]triazolo[1,5-c]pyrimidin-1-yl)cyclohexyl]methyl}amino)pyrrolidine-1-carboxylate]	0.029 µM	0.51 µM	0.34 µM	> 1 µM	–	–	–	–	–
OC[C@@H]1CCCN1C[C@H]1CC[C@H](c2nnn3cnc4[nH]ccc4c23)CC1 [compound 266, ((S)-1-{[trans-4-(7H-pyrrolo[3,2-e][1,2,3]triazolo[1,5-c]pyrimidin-1-yl)cyclohexyl]methyl}pyrrolidin-2-yl)methanol]	0.025 µM	0.35 µM	0.11 µM	> 1 µM	–	–	–	–	–
O=C(CC(F)(F)F)N1CCCC(c2nnn3cnc4[nH]ccc4c23)C1 (racemic) [compound 17]	–	–	–	–	–	0.029 µM	0.57 µM	0.076 µM	2.1 µM
N#C[C@H]1CCN(C[C@H]2CC[C@H](c3nnn4cnc5[nH]ccc5c34)CC2)C1 [compound 187, (S)-1-{[trans-4-(7H-pyrrolo[3,2-e][1,2,3]triazolo[1,5-c]pyrimidin-1-yl)cyclohexyl]methyl}pyrrolidine-3-carbonitrile]	–	–	–	–	–	0.0076 µM	0.36 µM	0.038 µM	0.37 µM
O=C(NCC(O)(c1ccccc1)C(F)(F)F)[C@H]1CC[C@H](c2nnn3cnc4[nH]ccc4c23)CC1 (stereo partly drawn) [compound 346, trans-4-(7H-Pyrrolo[3,2-e][1,2,3]triazolo[1,5-c]pyrimidin-1-yl)-N-(3,3,3-trifluoro-2-hydroxy-2-phenylpropyl)cyclohexanecarboxamide]	0.0051 µM	> 1 µM	0.06 µM	> 1 µM	–	–	–	–	–
FC(F)(F)c1nc2cc(NC[C@H]3CC[C@H](c4nnn5cnc6[nH]ccc6c45)CC3)ccc2[nH]1 [compound 175, N-{[trans-4-(7H-pyrrolo[3,2-e][1,2,3]triazolo[1,5-c]pyrimidin-1-yl)cyclohexyl]methyl}-2-(trifluoromethyl)-1H-benzo[d]imidazol-5-amine]	–	–	–	–	–	0.0056 µM	0.045 µM	0.0074 µM	0.34 µM
FC(F)(F)c1ccc(CN[C@H]2CC[C@H](c3nnn4cnc5[nH]ccc5c34)CC2)cc1 [138b]	–	–	–	–	–	0.0043 µM	0.046 µM	0.043 µM	0.4 µM
Fc1ccc(C2(NC[C@H]3CC[C@H](c4nnn5cnc6[nH]ccc6c45)CC3)CCC2)cc1 [compound 324, N-{[trans-4-(7H-pyrrolo[3,2-e][1,2,3]triazolo[1,5-c]pyrimidin-1-yl)cyclohexyl]methyl}-1-(4-fluorophenyl)cyclobutanamine]	0.0034 µM	0.75 µM	0.034 µM	0.66 µM	–	–	–	–	–
CN(CCC#N)c1ccc(CN2CCC(c3nnn4cnc5[nH]ccc5c34)CC2)cc1 [compound 226, 3-[(4-{[4-(7H-pyrrolo[3,2-e][1,2,3]triazolo[1,5-c]pyrimidin-1-yl)piperidin-1-yl]methyl}phenyl)(methyl)amino]propanenitrile]	0.28 µM	> 1 µM	> 1 µM	> 1 µM	–	–	–	–	–
C=C1CCC(c2nnn3cnc4[nH]ccc4c23)CC1 [compound 433, 1-(4-Methylenecyclohexyl)-7H-pyrrolo[3,2-e][1,2,3]triazolo[1,5-c]pyrimidine]	0.0081 µM	0.12 µM	0.027 µM	0.71 µM	–	–	–	–	–
c1ccc(CCCN[C@H]2CC[C@@H](c3nnn4cnc5[nH]ccc5c34)CC2)cc1 [136a]	–	–	–	–	–	0.14 µM	> 1 µM	> 1 µM	> 1 µM
Fc1ccc(CCNC[C@H]2CC[C@H](c3nnn4cnc5[nH]ccc5c34)CC2)cc1 [compound 111]	–	–	–	–	–	0.0019 µM	0.028 µM	0.027 µM	0.22 µM
CCN(C)C1CN(C[C@H]2CC[C@H](c3nnn4cnc5[nH]ccc5c34)CC2)C1 [compound 424, 1-{[trans-4-(7H-pyrrolo[3,2-e][1,2,3]triazolo[1,5-c]pyrimidin-1-yl)cyclohexyl]methyl}-N-ethyl-N-methylazetidin-3-amine]	0.044 µM	> 1 µM	0.48 µM	> 1 µM	–	–	–	–	–
c1cc2c(ncn3nnc(C4CCC4)c23)[nH]1 [compound 67]	–	–	–	–	–	0.052 µM	0.41 µM	0.2 µM	0.65 µM
c1cn(-c2ccc(CN3CCC(c4nnn5cnc6[nH]ccc6c45)CC3)cc2)cn1 [compound 221, 1-{1-[4-(1H-imidazol-1-yl)benzyl]piperidin-4-yl}-7H-pyrrolo[3,2-e][1,2,3]triazolo[1,5-c]pyrimidine]	0.018 µM	> 1 µM	0.09 µM	> 1 µM	–	–	–	–	–
O=C1COc2ccc(NC[C@H]3CC[C@H](c4nnn5cnc6[nH]ccc6c45)CC3)cc2N1 [compound 274, 6-({[trans-4-(7H-pyrrolo[3,2-e][1,2,3]triazolo[1,5-c]pyrimidin-1-yl)cyclohexyl]methyl}amino)-2H-benzo[b][1,4]oxazin-3(4H)-one]	0.0035 µM	0.2 µM	0.029 µM	> 1 µM	–	–	–	–	–

Now from value to molecule, other results behind:

IC50 (JAK1)	IC50 (Tyk2)	IC50 (JAK2)	IC50 (JAK3 [2])	SMILES	IC50 (JAK3 [1])	IC50 (JAK1; Table^a 154)	IC50 (Tyk2; Table^a 154)	IC50 (JAK2; Table^a 154)	IC50 (JAK3 [2]; Table^a 154)
0.0013 µM	0.03 µM	0.0061 µM	0.37 µM	O=S(=O)(C[C@H]1CC[C@H](c2nnn3cnc4[nH]ccc4c23)CC1)C(F)(F)F [compound 368, 1-(trans-4-{[(Trifluoromethyl)sulfonyl]methyl}cyclohexyl)-7H-pyrrolo[3,2-e][1,2,3]triazolo[1,5-c]pyrimidine]	–	–	–	–	–
0.0069 µM	0.59 µM	0.06 µM	0.48 µM	FC1CN(C[C@H]2CC[C@H](c3nnn4cnc5[nH]ccc5c34)CC2)C1 [compound 338, 1-{trans-4-[(3-fluoroazetidin-1-yl)methyl]cyclohexyl}-7H-pyrrolo[3,2-e][1,2,3]triazolo[1,5-c]pyrimidine]	–	–	–	–	–
0.0038 µM	0.19 µM	0.065 µM	0.73 µM	CN(C)C[C@H]1CC[C@H](c2nnn3cnc4[nH]ccc4c23)CC1 [compound 296, 1-[trans-4-(7H-pyrrolo[3,2-e][1,2,3]triazolo[1,5-c]pyrimidin-1-yl)cyclohexyl]-N,N-dimethylmethanamine]	–	–	–	–	–
0.0057 µM	0.3 µM	0.015 µM	0.41 µM	O=S(=O)(C[C@H]1CC[C@H](c2nnn3cnc4[nH]ccc4c23)CC1)NCC(F)(F)F [compound 420, 1-[trans-4-(7H-pyrrolo[3,2-e][1,2,3]triazolo[1,5-c]pyrimidin-1-yl)cyclohexyl]-N-(2,2,2-trifluoroethyl)methanesulfonamide]	–	–	–	–	–
0.0054 µM	0.17 µM	0.021 µM	0.72 µM	N#CC[C@H]1CC[C@@H](c2nnn3cnc4[nH]ccc4c23)CC1 [435a, 2-[cis-4-(7H-Pyrrolo[3,2-e][1,2,3]triazolo[1,5-c]pyrimidin-1-yl)cyclohexyl]acetonitrile]	–	–	–	–	–
0.0011 µM	0.044 µM	0.0066 µM	0.14 µM	O=C1SCCC1NC[C@H]1CC[C@H](c2nnn3cnc4[nH]ccc4c23)CC1 (stereo partly drawn) [compound 253, 3-({[trans-4-(7H-pyrrolo[3,2-e][1,2,3]triazolo[1,5-c]pyrimidin-1-yl)cyclohexyl]methyl}amino)dihydrothiophen-2(3H)-one]	–	–	–	–	–
0.00099 µM	0.0073 µM	0.0043 µM	0.054 µM	IC[C@H]1CC[C@H](c2nnn3cnc4[nH]ccc4c23)CC1 [compound 367]	–	–	–	–	–
0.0028 µM	0.13 µM	0.051 µM	> 1 µM	CC1(O)CN(C[C@H]2CC[C@H](c3nnn4cnc5[nH]ccc5c34)CC2)C1 [compound 422, 1-{[trans-4-(7H-pyrrolo[3,2-e][1,2,3]triazolo[1,5-c]pyrimidin-1-yl)cyclohexyl]methyl}-3-methylazetidin-3-ol]	–	–	–	–	–
0.0048 µM	0.21 µM	0.029 µM	0.8 µM	CNC[C@H]1CC[C@H](c2nnn3cnc4[nH]ccc4c23)CC1 [compound 329, 1-[trans-4-(7H-pyrrolo[3,2-e][1,2,3]triazolo[1,5-c]pyrimidin-1-yl)cyclohexyl]-N-methylmethanamine]	–	–	–	–	–
0.0025 µM	0.14 µM	0.015 µM	0.24 µM	FC(F)CNC[C@H]1CC[C@H](c2nnn3cnc4[nH]ccc4c23)CC1 [compound 255, N-{[trans-4-(7H-pyrrolo[3,2-e][1,2,3]triazolo[1,5-c]pyrimidin-1-yl)cyclohexyl]methyl}-2,2-difluoroethanamine]	–	–	–	–	–
0.0022 µM	0.15 µM	0.01 µM	0.61 µM	FC(F)(F)CN[C@H]1CC[C@H](c2nnn3cnc4[nH]ccc4c23)CC1 [395b, trans-4-(7H-pyrrolo[3,2-e][1,2,3]triazolo[1,5-c]pyrimidin-1-yl)-N-(2,2,2-trifluoroethyl)cyclohexanamine]	–	–	–	–	–
